Reference: US12697328B2, “Methods for treating metastasis with cathepsin C inhibitors” (Shanghai Institute of Nutrition and Health, Chinese Academy …, priority 2020, dated 2026)

How the values were obtained:
murine neutrophils = assay: Reactive oxygen species (ROS) analysis of neutrophils pre-treated with 4T07 conditioned medium; type: cell-based; details: 4T07 CM with CTSC overexpressed, inhibitors 10 μM, FIGS. 8C, 8E
Protocol: To measure the ROS levels, neutrophils were cultured in cancer cell CM or non-conditioned medium, and treated with DMSO or various inhibitors, including Sivelestat (10 μM), BAY11-7082 (10 μM) and SB203580 (10 μM) for 1 h at 37° C. Cells were then harvested and resuspended in assay buffer (PBS, 4 mM EGTA, pH 7.4, containing 10 μM CM-H2DCFDA, Invitrogen), incubated for 15 min at 37° C. in dark, washed with pre-chilled PBS, followed by FACS analysis within 30 min.
The release of reactive oxygen species (ROS) by neutrophils is known to induce NET formation. […] Commum. 6, 6673 (2015).
ROS analysis of murine neutrophils pre-treated with 4T07 conditioned medium show increased ROS production results from CTSC overexpression (FIG. 8E).

[1] = test system: SCP28 cells overexpressing CTSC; assay: Mice injected with CTSC-overexpressed SCP28 cells, treated with Sivelestat or DNase I; type: in vivo
Protocol: Female BALB/c and athymic mice aged 6-10 weeks were used in all animal experiments. Orthotropic and intravenous injection were performed as previously described (Zhuang et al., “Differential effects on lung and bone metastasis of breast cancer by Wnt signalling inhibitor DKK1,” Nat. Cell Biol. 19:1274-1285 (2017)). For EdU labeling assays, nude mice were intravenously injected with 2×10^5 cancer cells, followed by intraperitoneal (i.p.) injection of 100 ng/mouse EdU (ThermoFisher, C10640) 24 h before lung harvest. For neutrophil depletion assays, mice received 2 initial i.p. injection (200 μg/mouse) of 1A8 Ly6G antibody (BE0075-1, BioXCel) or rat IgG control (14131, Sigma) every 3 days before cancer cell injection and then maintenance injection twice a week after cancer cell injection. For Sivelestat or DNase I treatment, mice were i.p. injected with Sivelestat (50 mg/kg) or DNase I (5 mg/kg) 2 h before cancer cell injection, followed by daily injection of the reagents for 9 days, and then maintenance shots twice a week. For GSK484 treatment, mice were treated with GSK484 (20 mg/kg, i.p. daily shots for 20 days from day 7, and then maintenance shots every two days) following orthotopic injection of AT3 or 4T07 cells. For IL-1b blocking or IL6R/CCR1 inhibition assays, mice were orthotopically inoculated with 5×10^4 AT3 and treated with i.p. administration of IgG or the IL-1β blocking antibody (100 μg per mouse), or the IL6R blocking antibody (100 μg per mouse) and the CCR1 inhibitor BX471 (20 mg/kg), every two days from day 7 until the mice were sacrificed. For brensocatib treatment, BALB/c mice were orthotopically inoculated with 1×10^5 4T1 cells, and C57/BL6 mice were orthotopically inoculated with 2×10^5 AT3. […]
The number of myeloperoxidase-positive neutrophils around GFP^+ cancer cells in the lungs of mice 72 h after injection with CTSC-overexpressed SCP28 is quantified by immunostaining of the lung tissue. […]

[2] = test system: liver-metastatic breast cancer cell SCP16; assay: Tumor sphere formation of liver-metastatic breast cancer cells in neutrophil medium; type: cell-based; details: neutrophils cultured with cancer cell CM with or without brensocatib, FIG. 11H
Protocol: The neutrophils are cultured with conditioned medium from the cancer cells with or without brensocatib treatment to activate NETosis, and then the neutrophil medium was used in tumor sphere formation of bone and liver-metastatic breast cancer cells to analyze the effect of neutrophil medium to facilitate tumor cell growth. The data are shown in FIG. 11E for bone-metastatic breast cancer cell SCP2 and FIG. 11H for liver-metastatic breast cancer cell SCP16.

4T1 cells = assay: Brensocatib treatment of mice after fat pad injection of 4T1 cells (lung metastasis of breast cancer); type: in vivo, BALB/c mice; details: brensocatib 5 mg/kg orally twice daily
Protocol: Female BALB/c and athymic mice aged 6-10 weeks were used in all animal experiments. Orthotropic and intravenous injection were performed as previously described (Zhuang et al., “Differential effects on lung and bone metastasis of breast cancer by Wnt signalling inhibitor DKK1,” Nat. Cell Biol. 19:1274-1285 (2017)). For EdU labeling assays, nude mice were intravenously injected with 2×10^5 cancer cells, followed by intraperitoneal (i.p.) injection of 100 ng/mouse EdU (ThermoFisher, C10640) 24 h before lung harvest. For neutrophil depletion assays, mice received 2 initial i.p. injection (200 μg/mouse) of 1A8 Ly6G antibody (BE0075-1, BioXCel) or rat IgG control (14131, Sigma) every 3 days before cancer cell injection and then maintenance injection twice a week after cancer cell injection. For Sivelestat or DNase I treatment, mice were i.p. injected with Sivelestat (50 mg/kg) or DNase I (5 mg/kg) 2 h before cancer cell injection, followed by daily injection of the reagents for 9 days, and then maintenance shots twice a week. For GSK484 treatment, mice were treated with GSK484 (20 mg/kg, i.p. daily shots for 20 days from day 7, and then maintenance shots every two days) following orthotopic injection of AT3 or 4T07 cells. For IL-1b blocking or IL6R/CCR1 inhibition assays, mice were orthotopically inoculated with 5×10^4 AT3 and treated with i.p. administration of IgG or the IL-1β blocking antibody (100 μg per mouse), or the IL6R blocking antibody (100 μg per mouse) and the CCR1 inhibitor BX471 (20 mg/kg), every two days from day 7 until the mice were sacrificed. For brensocatib treatment, BALB/c mice were orthotopically inoculated with 1×10^5 4T1 cells, and C57/BL6 mice were orthotopically inoculated with 2×10^5 AT3. Vehicle controls (0.5% HPMC, 0.1% Tween 80 in 0.1 M citrate buffer, pH 3) and brensocatib (5 mg/kg) were administered orally twice daily until the mice were sacrificed. Orthotopic tumors were surgically removed at the size of about 1 cm^3. Recombinant human active PR3 treatment (1.5 mg/kg) was administrated intravenously daily after intravenous inoculation of […] LM2 cells. For TSP-1 degradation assays, mice were i.p. injected with GSK484 (20 mg/kg) 2 h before cancer cell injection and followed by daily treatment. Then, the lungs were perfused with 50 ml of pre-chilled PBS through the right ventricle until they were cleared of blood at 72 h post injection of 3×10^6 AT3 or 4T07 cells. BLI was acquired with NightOWL II LB983 Imaging System (Bert-hold) and IVIS Spectrum CT (PerkinElmer). All animal studies were conducted according to the guidelines for the care and use of laboratory animals and were approved by the Institutional Animal Care and Use Committee of Shanghai Institute of Nutrition and Health.
The use of CTSC inhibitors to treat lung metastasis of breast cancer is investigated. Brensocatib (also known as AZD7986 or INS1007) is a CTSC-specific inhibitor used for treating Non-Cystic Fibrosis Bronchiectasis, and has currently entered Phase II clinical trials. See Doyle et aL, “Discovery of second generation reversible covalent DPP1 inhibitors leading to an oxazepane amidoacetonitrile based clinical candidate (AZD7986),” J. Med. Chem. 59:9457-9472 (2016). Brensocatib is administered to mice 7 days after the introduction of 4T1 cells via fat pad injection. A vehicle control group is also provided. Graphical data for change in tumor volume over time, numbers of pulmonary nodules formed, changes in mouse weight over time, and mouse survival rates, as well as the statistical diagram of the number of NETs in the lesions, are shown in FIGS. 10A-E. CTSC inhibitor brensocatib also suppresses the NETs-promoted tumor sphere formation of 4T1 cells (FIG. 10F).

4T1 breast cancer cells = assay: Tumor sphere formation of 4T1 cells in medium of neutrophils pre-treated with 4T1 CM; type: cell-based; details: 4T1 cells in medium of neutrophils pre-treated with CM of 4T1; vs untreated control; FIG. 10F

| Structure (SMILES) | ROS production / ROS levels (murine neutrophils) | neutrophil aggregation around cancer cells in the lungs ([1]; 7 weeks post-injection, FIG. 7G) | neutrophil aggregation around cancer cells in the lungs ([1]; 72 h after injection, Sivelestat 50 mg/kg i.p., FIG. 7F) | lung metastasis (BLI) ([1]; up to 8 weeks post-injection, Sivelestat 50 mg/kg or DNase I 5 mg/kg i.p., FIG. 8G) | capability of drug-treated neutrophils to facilitate tumor cell growth (tumor sphere formation) [2] | in situ tumor volume vs. time (primary tumor growth) (4T1 cells; from 7 days after 4T1 fat pad injection, vs untreated control, FIG. 10A) | formation of NETs in the lung metastatic lesions (4T1 cells; FIG. 10E) | pulmonary nodule formation (4T1 cells; vs untreated mice, FIG. 10B) | body weight decrease (4T1 cells; vs untreated mice, FIG. 10C) | survival rate (4T1 cells; vs untreated mice, FIG. 10D) | neutrophil infiltration in the pulmonary lesions (4T1 cells; vs untreated mice, FIG. 10E) | tumor sphere formation (4T1 breast cancer cells) |
| --- | --- | --- | --- | --- | --- | --- | --- | --- | --- | --- | --- | --- |
| CC(C)(C)C(=O)Oc1ccc(S(=O)(=O)Nc2ccccc2C(=O)NCC(=O)O)cc1 [Silvelestat] | blocks | persist through 7 weeks post-injection | decreases | suppressed |  |  |  |  |  |  |  |  |
| Cn1c(=O)oc2ccc(-c3ccc(C[C@@H](C#N)NC(=O)[C@@H]4CNCCCO4)cc3)cc21 [brensocatib, (2S)—N-{(1S)-1-cyano-2-[4-(3-methyl-2-oxo-2,3-dihydro-1,3-benzoxazol-5-yl)phenyl]ethyl}-1,4-oxazepane-2-carboxamide] |  |  |  |  | significantly weakened | does not affect primary tumor growth | significantly inhibits | significantly reduced | lower than untreated mice | significantly improves | reduced relative to untreated mice | suppressed |
